Experimental data from article PMC13081163, “Discovery of a novel Nrf2 activator that modulates mitochondrial function in neurons by regulating DHRS3-Nrf2 interaction after ischemic stroke” (Theranostics, 2026).
Where two headings read alike, the source gives them in different places.

How the values were obtained:
[1] = molecular target: Keap1 BTB domain fragment (48-149) (Homo sapiens, UniProt Q14145); assay: SPR binding to truncated Keap1 (48-149)
Description: (§1) The binding affinity of Cpd.51 or Oma to Keap1 proteins were measured using a Biacore T200. The overall experimental procedures were based on previous reports, [28]. Human recombinant Keap1 proteins or truncated form of Keap1 (residues 48-180 and residues 48-149) were captured on a CM5 chip by a standard amine coupling procedure. Binding sensorgrams were recorded by injecting various concentrations of Cpd.51 over the immobilized proteins surface. The dissociation constant was obtained by globally fitting the data (to the 1:1 Langmuir binding model using the Biacore Insight evaluation software (Cytiva, Marlborough, MA, USA). Affinity tests for Cpd.51 and DHRS3 were also performed using the aforementioned method.

[2] = molecular target: T1, Keap1 BTB domain (48-180) (Homo sapiens, UniProt Q14145); assay: SPR binding to truncated Keap1 (48-180); conditions: read-out: KD, Keap1 BTB domain fragment
T1 construct: truncated form of Keap1 (residues 48-180 and residues 48-149)
T1 sequence (Q14145 48-180): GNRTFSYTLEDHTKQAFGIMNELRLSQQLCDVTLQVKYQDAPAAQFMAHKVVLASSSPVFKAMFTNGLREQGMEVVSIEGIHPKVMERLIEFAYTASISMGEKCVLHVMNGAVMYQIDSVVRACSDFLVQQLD
Description: as §1

[3] = Plasma and brain levels after i.v. dosing (blood-brain barrier); assay type: in vivo, rat; conditions: for concentration at 0.25 h / concentration at 1 h / concentration at 4 h: intravenous, i.v.
Description: Male SD rats were intravenous injection with Cpd.51, blood and brain tissues were collected 15 min, 1 h, 4 h, 6 h, 8 h and 24 h after drug administration. Samples were measured by a Shimadzu chromatography system (Shimadzu, Kyoto, Japan) coupled with an AB Sciex triple quadrupole 4500 mass spectrometer (SCIEX Triple Quad™ 4500 LC-MS/MS, Applied Biosystems Sciex, Ontario, Canada) using Analyst 1.4.2 software. A HPLC column (ACQUITY UPLC BEH C18, 2.1 × 50 mm, 1.7 μm) were used. Protein precipitation method was used for detection: 50 μL plasma sample or brain homogenate sample were added with 200 μL acetonitrile containing internal standard for precipitation, then vortexed for 3 min. The supernatant was injected into system for analysis after centrifugation.

Keap1-Nrf2 = molecular target: T2, Keap1-Nrf2 (Homo sapiens, UniProt Q14145); assay: Co-IP of Keap1-Nrf2 binding in SH-SY5Y cells; assay type: cell-based; conditions: 100 nM, physiological and OGD/R conditions
T2 construct: endogenous in cells; host or cells: SH-SY5Y
T2 sequence (Q14145 whole entry): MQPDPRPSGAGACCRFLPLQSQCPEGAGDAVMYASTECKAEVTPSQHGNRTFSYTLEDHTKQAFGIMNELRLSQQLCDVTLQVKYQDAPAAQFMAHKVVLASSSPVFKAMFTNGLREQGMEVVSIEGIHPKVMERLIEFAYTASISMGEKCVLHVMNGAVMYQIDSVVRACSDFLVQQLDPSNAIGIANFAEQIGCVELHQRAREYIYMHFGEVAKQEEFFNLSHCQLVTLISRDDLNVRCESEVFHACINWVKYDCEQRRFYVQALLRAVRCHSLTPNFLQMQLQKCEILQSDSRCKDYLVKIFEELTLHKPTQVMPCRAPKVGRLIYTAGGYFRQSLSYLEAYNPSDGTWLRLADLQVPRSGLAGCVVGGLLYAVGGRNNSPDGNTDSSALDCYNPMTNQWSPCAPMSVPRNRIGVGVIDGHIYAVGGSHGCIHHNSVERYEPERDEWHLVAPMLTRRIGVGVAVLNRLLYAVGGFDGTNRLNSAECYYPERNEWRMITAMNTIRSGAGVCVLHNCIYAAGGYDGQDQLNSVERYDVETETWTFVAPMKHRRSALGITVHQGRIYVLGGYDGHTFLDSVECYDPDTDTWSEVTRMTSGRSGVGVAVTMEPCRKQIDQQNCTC
Description: (§2) Co-IP experiments were performed as described. After SH-SY5Y cells were treated, lysates were collected and incubated with antibodies with rotation for 12 h at 4 °C. Then, they were incubated with protein A/G magnetic beads (88804, Thermo Scientific, USA) as specification. Subsequently, the beads were collected and immune complexes were isolated. Finally, protein complexes were incubated for 5 min at 95 °C after dissolving in the electrophoresis sample buffer, and subjected to western blotting.

[4] = Microsomal metabolic stability, dog; assay type: in vitro ADME; conditions: dog liver microsomes
Description: The liver microsomal incubation system comprised human, dog, or rat liver microsomal protein (0.75 mg/mL), nicotinamide adenine dinucleotide phosphate (NADPH) generation system, potassium phosphate buffer (0.1 M, pH 7.4), substrate, and inhibitor. The assay was conducted by first preparing a potassium phosphate buffer. Compounds and liver microsomes were then diluted and pre-incubated at 37 °C before initiating the reaction with NADPH. Aliquots were quenched with acetonitrile containing internal standard at specified time points. After sample processing (shaking and centrifugation), the supernatants were analyzed by LC-MS/MS to determine metabolic stability.

[5] = Pharmacokinetics in male rats (LC-MS/MS); assay type: in vivo; conditions: SD, rat, plasma
[6] = tested on: SH-SY5Y cells and primary cortical neuron cells; assay: Mitochondrial function in the OGD/R model (JC-1, Calcein-AM, DCFH-DA, ATP); assay type: cell-based
Description: Experiment two: mitochondrial ATP levels were assayed using ATP assay kit (S0027, Beyotime, China) according to the manufacturer's protocols. The cells were cultured by placing them in six-well plates as described in the "Cell culture and drug administration in vitro" method. Subsequently, 200 uL of lysate was added into the hole and supernatants were collected (4 °C, 12000 g, 5 min). 100 uL supernatants cultured with 100 µL probe of ATP, and the RLU was measured by a luminometer.
Assay of ROS generation production: cellular ROS were examined using an ROS Assay Kit (S0033S, Beyotime, China). Cells were incubated with DCFH-DA for 20 min at 37 °C in the dark, and then washed three times with PBS. The fluorescence intensity was measured by Laser Scanning Confocal Microscope (CLSM; ZEISS LSM 800, Germany).
Mitochondrial membrane potential (MMP) and MPTP assessment: MMP changes were measured by a mitochondrial membrane potential assay kit with JC-1 (C2003S, Beyotime, China) according to the manufacturer's instructions. Higher ratios of red to green fluorescence were correlated with higher mitochondrial membrane polarization. In addition, MPTP opening was assessed by Calcein-AM assays (Y237214-1mg, Beyotime, China). […] For detailed instructions, please refer to the manual.

DHRS3-Nrf2 complex = molecular target: T3, DHRS3-Nrf2 complex (Homo sapiens, UniProt O75911); assay: Co-IP of Nrf2-DHRS3 interaction in SH-SY5Y cells; assay type: cell-based; conditions: 100 nM, physiological and OGD/R conditions
T3 construct: endogenous in cells; host or cells: SH-SY5Y
T3 sequence (O75911 1-302): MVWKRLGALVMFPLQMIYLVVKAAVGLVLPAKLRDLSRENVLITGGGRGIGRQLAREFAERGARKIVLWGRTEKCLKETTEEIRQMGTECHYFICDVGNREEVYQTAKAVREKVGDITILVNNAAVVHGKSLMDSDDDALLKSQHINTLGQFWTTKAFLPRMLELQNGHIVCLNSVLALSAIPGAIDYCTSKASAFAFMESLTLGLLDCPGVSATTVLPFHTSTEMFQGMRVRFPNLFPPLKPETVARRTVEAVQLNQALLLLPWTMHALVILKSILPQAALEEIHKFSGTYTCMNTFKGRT
Description: as §2

[7] = molecular target: Human recombinant Keap1 proteins (Homo sapiens, UniProt Q14145); assay: SPR binding to full-length Keap1; design: purchased Sinobiological ME18DE0203; conditions: read-out: KD, full-length Keap1 protein
Human recombinant Keap1 proteins, sequence (Q14145 whole entry): as the sequence (Q14145 whole entry) above
Description: as §1

Keap1 BTB domain fragment (48-149), sequence (Q14145 48-149): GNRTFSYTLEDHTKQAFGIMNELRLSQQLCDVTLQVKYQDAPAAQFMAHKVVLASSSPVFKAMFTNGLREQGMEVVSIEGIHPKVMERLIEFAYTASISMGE

CC1(C)CCC2(C(=O)NO)CCC3(C)C(C(=O)C=C4C5(C)C=C(C#N)C(=O)C(C)(C)C5CCC43C)C2C1 (stereo not shown) [Cpd.51]
Kd [1]: 67.2 µM | Kd [2]: 31.3 µM | distribution to brain tissue ([3]; intravenous administration): relatively effective distribution to brain tissue | concentration at 0.25 h ([3]; male, SD, rat, brain, 5 mg/kg, 0.25 h, read-out: Brain): 86.7 ± 49.3 ng/g | concentration at 1 h ([3]; male, SD, rat, brain, 5 mg/kg, 1 h, read-out: Brain): 29.5 ± 17.5 ng/g | concentration at 4 h ([3]; male, SD, rat, brain, 5 mg/kg, 4 h, read-out: Brain): 10.3 ± 4 ng/g | Kp at 0.25 h ([3]; male, SD, rat, brain, iv, 5 mg/kg, 0.25 h): 0.07 ± 0.04 | Kp at 1 h ([3]; male, SD, rat, brain, iv, 5 mg/kg, 1 h): 0.16 ± 0.12 | Kp at 4 h ([3]; male, SD, rat, brain, iv, 5 mg/kg, 4 h): 0.28 ± 0.14 | concentration at 0.25 h ([3]; male, SD, rat, plasma, 5 mg/kg, 0.25 h, read-out: Plasma): 1.29 ± 0.068 µg/mL | concentration at 1 h ([3]; male, SD, rat, plasma, 5 mg/kg, 1 h, read-out: Plasma): 0.198 ± 0.044 µg/mL | concentration at 4 h ([3]; male, SD, rat, plasma, 5 mg/kg, 4 h, read-out: Plasma): 0.0395 ± 0.0104 µg/mL | amount of Nrf2 bound to Keap1 (Co-IP) (Keap1-Nrf2): reduced the amount of Nrf2 bound to Keap1 | Remainig (%, t = 60 min) [4]: 32.9% | CLint scaled ([4]; dog, pH 7.4): 3.06 L/h/kg | half-life ([4]; dog, pH 7.4): 0.653 h | half-life ([5]; 30 mg/kg, i.g. (oral)): 6.36 h | half-life ([5]; iv, 5 mg/kg): 1.49 ± 0.31 h | AUC(0-t) ([5]; po, 30 mg/kg, i.g.): 0.685 ± 0.111 µg·h/mL | Cmax ([5]; po, 30 mg/kg, i.g.): 0.124 ± 0.037 µg/mL | MRT last ([5]; po, 30 mg/kg, i.g.): 5.17 ± 0.72 h | bioavailability ([5]; po, 30 mg/kg, i.g., read-out: F (oral bioavailability)): 11.5% | mitochondrial membrane potential (JC-1) [6]: enhanced mitochondrial membrane potential | mitochondrial permeability (MPTP, Calcein AM) [6]: reduced mitochondrial permeability | ATP production ([6]; SH-SY5Y cells): increased ATP production | reactive oxygen species production (DCFH-DA) ([6]; SH-SY5Y cells): decreased reactive oxygen species production | DHRS3-Nrf2 complex formation (Co-IP) (DHRS3-Nrf2 complex): substantially reduced DHRS3-Nrf2 complex formation | Kd [7]: 53.9 µM
